# Measurements as given in US20050020567A1, “Method of treating bacterial infections using gemifloxacin or a salt thereof and a carbapenem antibacterial agent” (priority 2002, published 2005).
# Read-outs that look alike come from different tables or passages of the source.
# Tests used:
# Type in all cases: cell-based, Pseudomonas aeruginosa
# P. aeruginosa ATCC 27853 = assay: checkerboard titration, gemifloxacin and meropenem (MIC, FIC); conditions: for MIC: Pseudomonas aeruginosa
# Protocol: Evaluation for synergistic activity was carried out by calculation of fractional inhibitory concentrations (FICs) according to the method of Eliopoulos et al (1996, Antimicrobial Combinations, Antibiotics in Laboratory Medicine, Victor Lorian, 4th Edition, pp 337-338, Baltimore, Md., Williams and Wilkins).
# P. aeruginosa ATCC 27853 was obtained from the SmithKline Beecham Anti-Infectives Research Culture Collection and stored at −80° C. in 10% glycerol. Before testing, the isolate was passaged onto agar plates (trypticase soy agar containing 5% sheeps blood) from the frozen stock for two consecutive days. Cation adjusted Mueller Hinton broth (BBL, Cockeyville, Md.) was used for the isolate.
# Checkerboard microtitre broth dilution plates were prepared using the Hamilton MicroLab AT Plus system (Reno, Nev.). Two-fold serial dilutions (50 μl) of meropenem were made in columns 1 through 11 of a microtitre plate. Two-fold serial dilutions of gemifloxicin were prepared manually and the MicroLab AT Plus was used to dispense 25 μl of gemifloxacin at each concentration into rows A through G of the microtitre plate. The concentration range tested varied for each drug/organism combination to encompass the MIC endpoints of the individual components. Column 12 contained two fold serial dilutions of gemifloxacin only, and row H contained two fold serial dilutions of meropenem only. The last well (H) in column 12 was used as a positive growth control well, containing only medium and test isolate.
# The bacteria were diluted to a 0.5 McFarland standard and then further diluted 1/50. Each well was inoculated with 25 μl of the isolate to give a final inoculum density of approximately 5×10^5 cfu/ml. The MicroLab AT Plus 2 was used to add the inoculum to the microtitre plates. After inoculation, the plates were covered with a 96 well microtitre plate lid and incubated at 35° C. in ambient air for 20-24 hours. A 10 μl aliquot of the inoculum was plated on trypticase soy agar containing 5% sheep blood to determine the purity of the final test inoculum.
# Following incubation, a microtitre mirror reader (Cooke Instruments Ltd., England) was used to assist in determining the microdilution MIC endpoints. The MIC was determined as the lowest concentration of compound that inhibited visible growth of the organism.
# The Fractional Inhibitory Concentrations (FICs) were calculated using the following formula: (A)/(MIC A)+(B)/(MIC B)=FIC A+FIC B=FIC Index wherein: • A is the MIC of drug A in the presence of drug B • B is the MIC of drug B in the presence of drug A • MIC A is the MIC of the organism to drug A alone • MIC B is the MIC of the organism to drug B alone • FIC A is the fractional inhibitory concentration of drug A • FIC B is the fractional inhibitory concentration of drug B
# P. aeruginosa 6140 = assay: checkerboard titration, gemifloxacin and imipenem (MIC, FIC); conditions: for MIC: Pseudomonas aeruginosa, alone
# Protocol: (§1) The combined effect of gemifloxacin and imipenem was investigated in P. aeruginosa by using a checkerboard titration method. The test organisms used in this study were all clinical isolates collected in Korea. The isolates were maintained frozen at −70° C. prior to testing.
# (§2) Gemifloxacin was tested at 12 concentrations (0.016-32 μg/ml) and imipenem was tested at 11 concentrations (0.016-16 μg/ml). Gemifloxacin was dispensed alone in the first row and combined with imipenem in the remaining rows. Imipenem solution was also dispensed alone in the first row in the first column. Test strains were grown for 18 h in Mueller-Hinton Broth, and then these overnight cultures were diluted with the same fresh medium to the density of approximately 10^7 CFU/mL. The bacterial concentrations were determined by measuring optical density or turbidity of the suspension and were verified by standard colony counts on antibiotic-free agar plates. A diluted bacterial solution was applied to plates containing serially diluted antimicrobial agents to yield 5×10^5 CFU/mL. Plates were incubated at 35° C. for 18 hours.
# (§3) Minimal inhibitory concentrations (MICs) for each separate drug were determined. For wells along the growth-no growth interface, synergy was determined by calculating the Fractional Inhibitory Concentration (FIC) index. The Fractional Inhibitory Concentration (FIC) indices were calculated using the following formula: FIC index=FICA+FICB=[A]/MICA+[B]/MICB Wherein: • FICA(or B), is the FIC of drug A (or B) • MICA (or B) is the MIC of the organism to drug A (or B) • A (or B) is concentration of drug A (or B) that is the lowest inhibitory concentration
# (§4) The FIC indices were interpreted using the following criteria: • ≦0.5=Synergy; • >0.5-1.0=Additive; • >1.0-4.0=Indifference; • >4.0=Antagonism
# P. aeruginosa 6168 = assay: as above; conditions: for MIC: Pseudomonas aeruginosa, alone
# Protocol: as §1, §2, §3, §4
# P. aeruginosa PA018R = assay: as above; conditions: for MIC: Pseudomonas aeruginosa, alone
# Protocol: as §1, §2, §3, §4
# [1] = gemifloxacin in combination with imipenem
# [2] = imipenem in combination with gemifloxacin
smiles,measurement,setting,value
"CO/N=C1\CN(c2nc3c(cc2F)c(=O)c(C(=O)O)cn3C2CC2)CC1CN (racemic) [gemifloxacin, (R,S)-7-(3-aminomethyl-4-methoxyiminopyrrolidin-1-yl)-1-cyclopropyl-6-fluoro-4-oxo-1,4-dihydro-1,8-naphthyridine-3-carboxylic acid]",MIC,"P. aeruginosa ATCC 27853; ATCC27853, in the presence of meropenem 0.125 μg/ml, read-out: gemifloxacin MIC",0.125 µg/mL
same,gemifloxacin MIC,P. aeruginosa ATCC 27853; gemifloxacin alone,0.5 µg/mL
same,FICA,P. aeruginosa 6140; FIC of gemifloxacin,0.25
same,MIC,P. aeruginosa 6140; read-out: gemifloxacin MIC,8 µg/mL
same,Cgemifloxacin MIC,P. aeruginosa 6140; [1],2 µg/mL
same,FICA,P. aeruginosa 6168; FIC of gemifloxacin,0.13
same,MIC,P. aeruginosa 6168; read-out: gemifloxacin MIC,0.5 µg/mL
same,Cgemifloxacin MIC,P. aeruginosa 6168; [1],0.0625 µg/mL
same,FICA,P. aeruginosa PA018R; FIC of gemifloxacin,0.25
same,MIC,P. aeruginosa PA018R; read-out: gemifloxacin MIC,4 µg/mL
same,Cgemifloxacin MIC,P. aeruginosa PA018R; [1],1 µg/mL
C[C@@H](O)[C@H]1C(=O)N2C(C(=O)O)=C(SCCN=CN)C[C@H]12 [imipenem],FICB,P. aeruginosa 6140; FIC of imipenem,0.25
same,MIC,P. aeruginosa 6140; read-out: imipenem MIC,4 µg/mL
same,Cimipenem MIC,P. aeruginosa 6140; [2],1 µg/mL
same,FICB,P. aeruginosa 6168; FIC of imipenem,0.25
same,MIC,P. aeruginosa 6168; read-out: imipenem MIC,1 µg/mL
same,Cimipenem MIC,P. aeruginosa 6168; [2],0.25 µg/mL
same,FICB,P. aeruginosa PA018R; FIC of imipenem,0.06
same,MIC,P. aeruginosa PA018R; read-out: imipenem MIC,16 µg/mL
same,Cimipenem MIC,P. aeruginosa PA018R; [2],1 µg/mL
C[C@@H](O)[C@H]1C(=O)N2C(C(=O)O)=C(S[C@@H]3CN[C@H](C(=O)N(C)C)C3)[C@H](C)[C@H]12 [meropenem],MIC,"P. aeruginosa ATCC 27853; ATCC27853, in the presence of gemifloxacin 0.125 μg/ml, read-out: meropenem MIC",0.125 µg/mL
same,meropenem MIC,P. aeruginosa ATCC 27853; meropenem alone,0.5 µg/mL
